According to PubChem BioAssay (NCI):
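Five compound concentrations were applied to cells in 96-well plates for 48 hours; endpoints were derived by simple linear interpolation of the resulting dose-response curve. TGI is the concentration that stops growth completely.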

Assays:
Experiment in all cases: inhibition of tumour cell growth, NCI panel, 48 h
HCT-116 colon = system: HCT-116 colon
SR leukemia = system: SR leukemia
RPMI-8226 leukemia = system: RPMI-8226 leukemia
UACC-257 melanoma = system: UACC-257 melanoma
OVCAR-5 ovarian = system: OVCAR-5 ovarian
RXF 393 renal = system: RXF 393 renal
COLO 205 colon = system: COLO 205 colon
SNB-75 CNS = system: SNB-75 CNS
SK-OV-3 ovarian = system: SK-OV-3 ovarian
XF 498 CNS = system: XF 498 CNS
M14 melanoma = system: M14 melanoma
786-0 renal = system: 786-0 renal
UACC-62 melanoma = system: UACC-62 melanoma
HOP-62 NSCLC = system: HOP-62 NSCLC
M19-MEL melanoma = system: M19-MEL melanoma
LOX IMVI melanoma = system: LOX IMVI melanoma
DMS 273 small cell lung = system: DMS 273 small cell lung
LXFL 529 NSCLC = system: LXFL 529 NSCLC
NCI-H460 lung = system: NCI-H460 lung
K-562 leukemia = system: K-562 leukemia
HCT-15 colon = system: HCT-15 colon
SW-620 colon = system: SW-620 colon
HCC-2998 colon = system: HCC-2998 colon
HL-60(TB) leukemia = system: HL-60(TB) leukemia
ACHN renal = system: ACHN renal
U251 CNS = system: U251 CNS
DLD-1 colon = system: DLD-1 colon
NCI-H23 lung = system: NCI-H23 lung
SK-MEL-28 melanoma = system: SK-MEL-28 melanoma
SK-MEL-5 melanoma = system: SK-MEL-5 melanoma
MALME-3M melanoma = system: MALME-3M melanoma
UO-31 renal = system: UO-31 renal
HOP-18 NSCLC = system: HOP-18 NSCLC
CCRF-CEM leukemia = system: CCRF-CEM leukemia
SN12C renal = system: SN12C renal
OVCAR-3 ovarian = system: OVCAR-3 ovarian
NCI-H522 lung = system: NCI-H522 lung
HOP-92 NSCLC = system: HOP-92 NSCLC
HT29 colon = system: HT29 colon
NCI-H226 lung = system: NCI-H226 lung
TK-10 renal = system: TK-10 renal
SK-MEL-2 melanoma = system: SK-MEL-2 melanoma
SF-268 CNS = system: SF-268 CNS
KM12 colon = system: KM12 colon
SF-295 CNS = system: SF-295 CNS
SNB-19 CNS = system: SNB-19 CNS
MOLT-4 leukemia = system: MOLT-4 leukemia
DMS 114 small cell lung = system: DMS 114 small cell lung
KM20L2 colon = system: KM20L2 colon
IGROV1 ovarian = system: IGROV1 ovarian
SNB-78 CNS = system: SNB-78 CNS
SF-539 CNS = system: SF-539 CNS
A549 NSCLC = system: A549 NSCLC
EKVX NSCLC = system: EKVX NSCLC
OVCAR-8 ovarian = system: OVCAR-8 ovarian
OVCAR-4 ovarian = system: OVCAR-4 ovarian
RXF-631 renal = system: RXF-631 renal
CAKI-1 renal = system: CAKI-1 renal
A498 renal = system: A498 renal

## CCCCC1(C(NC(=O)c2ccccc2Cl)c2ccncc2)C(=O)N(c2ccccc2)N(c2ccccc2)C1=O (configuration not stated)
HCT-116 colon
  TGI: > 100 µM
SR leukemia
  TGI: 93.9 µM
RPMI-8226 leukemia
  TGI: 84.1 µM
UACC-257 melanoma
  TGI: > 100 µM
OVCAR-5 ovarian
  TGI: > 100 µM
RXF 393 renal
  TGI: > 100 µM
COLO 205 colon
  TGI: 52.6 µM
SNB-75 CNS
  TGI: 71.4 µM
SK-OV-3 ovarian
  TGI: > 100 µM
XF 498 CNS
  TGI: > 100 µM
M14 melanoma
  TGI: > 100 µM
786-0 renal
  TGI: > 100 µM
UACC-62 melanoma
  TGI: > 100 µM
HOP-62 NSCLC
  TGI: > 100 µM
M19-MEL melanoma
  TGI: > 100 µM
LOX IMVI melanoma
  TGI: > 100 µM
DMS 273 small cell lung
  TGI: > 100 µM
LXFL 529 NSCLC
  TGI: > 100 µM
NCI-H460 lung
  TGI: > 100 µM
K-562 leukemia
  TGI: > 100 µM
HCT-15 colon
  TGI: > 100 µM
SW-620 colon
  TGI: > 100 µM
HCC-2998 colon
  TGI: > 100 µM
HL-60(TB) leukemia
  TGI: 40.8 µM
ACHN renal
  TGI: > 100 µM
U251 CNS
  TGI: > 100 µM
DLD-1 colon
  TGI: > 100 µM
NCI-H23 lung
  TGI: > 100 µM
SK-MEL-28 melanoma
  TGI: > 100 µM
SK-MEL-5 melanoma
  TGI: 60 µM
MALME-3M melanoma
  TGI: > 100 µM
UO-31 renal
  TGI: > 100 µM
HOP-18 NSCLC
  TGI: > 100 µM
CCRF-CEM leukemia
  TGI: > 100 µM
SN12C renal
  TGI: > 100 µM
OVCAR-3 ovarian
  TGI: > 100 µM
NCI-H522 lung
  TGI: > 100 µM
HOP-92 NSCLC
  TGI: > 100 µM
HT29 colon
  TGI: > 100 µM
NCI-H226 lung
  TGI: > 100 µM
TK-10 renal
  TGI: > 100 µM
SK-MEL-2 melanoma
  TGI: > 100 µM
SF-268 CNS
  TGI: > 100 µM
KM12 colon
  TGI: > 100 µM
SF-295 CNS
  TGI: > 100 µM
SNB-19 CNS
  TGI: > 100 µM
MOLT-4 leukemia
  TGI: 50.3 µM
DMS 114 small cell lung
  TGI: > 100 µM
KM20L2 colon
  TGI: > 100 µM
IGROV1 ovarian
  TGI: > 100 µM
SNB-78 CNS
  TGI: > 100 µM
SF-539 CNS
  TGI: > 100 µM
A549 NSCLC
  TGI: > 100 µM
EKVX NSCLC
  TGI: > 100 µM
OVCAR-8 ovarian
  TGI: > 100 µM

## CCOC(=O)CCC(NC(=O)c1ccc(NC(OC)c2nc3cc(C(F)(F)F)ccc3nc2-c2ccccc2)cc1)C(=O)OCC (configuration not stated)
HCT-116 colon
  TGI: 9.35 µM
SR leukemia
  TGI: > 100 µM
OVCAR-4 ovarian
  TGI: 55.1 µM
RPMI-8226 leukemia
  TGI: > 74.1 µM
UACC-257 melanoma
  TGI: 32.2 µM
OVCAR-5 ovarian
  TGI: 31.5 µM
RXF 393 renal
  TGI: 27.2 µM
COLO 205 colon
  TGI: 35.6 µM
SNB-75 CNS
  TGI: 36.5 µM
SK-OV-3 ovarian
  TGI: 34.9 µM
M14 melanoma
  TGI: 29 µM
786-0 renal
  TGI: 26.6 µM
UACC-62 melanoma
  TGI: 34.2 µM
HOP-62 NSCLC
  TGI: 31.2 µM
M19-MEL melanoma
  TGI: 29.2 µM
LOX IMVI melanoma
  TGI: 23.4 µM
DMS 273 small cell lung
  TGI: 21 µM
LXFL 529 NSCLC
  TGI: 20.3 µM
NCI-H460 lung
  TGI: 26.2 µM
K-562 leukemia
  TGI: > 26.6 µM
RXF-631 renal
  TGI: 29.2 µM
HCT-15 colon
  TGI: 34 µM
SW-620 colon
  TGI: 20.7 µM
HCC-2998 colon
  TGI: 30 µM
ACHN renal
  TGI: 30.2 µM
U251 CNS
  TGI: 29.8 µM
DLD-1 colon
  TGI: 24.1 µM
NCI-H23 lung
  TGI: 31.5 µM
SK-MEL-28 melanoma
  TGI: 31.6 µM
SK-MEL-5 melanoma
  TGI: 30 µM
MALME-3M melanoma
  TGI: 31.3 µM
UO-31 renal
  TGI: 26.8 µM
HOP-18 NSCLC
  TGI: 44.5 µM
CCRF-CEM leukemia
  TGI: > 21.7 µM
SN12C renal
  TGI: 28.2 µM
OVCAR-3 ovarian
  TGI: 35.8 µM
NCI-H522 lung
  TGI: 25.6 µM
HOP-92 NSCLC
  TGI: 30.3 µM
HT29 colon
  TGI: 22.1 µM
NCI-H226 lung
  TGI: 35 µM
TK-10 renal
  TGI: 38.4 µM
CAKI-1 renal
  TGI: 31.1 µM
SK-MEL-2 melanoma
  TGI: 33.1 µM
SF-268 CNS
  TGI: 30.9 µM
KM12 colon
  TGI: 19.1 µM
SF-295 CNS
  TGI: 31.2 µM
SNB-19 CNS
  TGI: 27.5 µM
MOLT-4 leukemia
  TGI: > 24.1 µM
DMS 114 small cell lung
  TGI: 30.7 µM
KM20L2 colon
  TGI: 27.2 µM
IGROV1 ovarian
  TGI: 33.3 µM
A498 renal
  TGI: 34.5 µM
SNB-78 CNS
  TGI: 37.3 µM
SF-539 CNS
  TGI: 26.1 µM
A549 NSCLC
  TGI: 39.4 µM
EKVX NSCLC
  TGI: 33.6 µM
OVCAR-8 ovarian
  TGI: 29.6 µM
